Test results reported in patent US10744114B2, “Use of eupatilin as pharmaceutical composition for prevention and treatment of fibrosis using EMT inhibitory activity” (OSTEONEUROGEN INC., priority 2016, dated 2020).

Assays:
[1] = system: Col1 (type 1 Collagen), Vim (Vimentin) and Twist; experiment: Real-time RT-PCR of EMT regulators in ONGHEPA1 cells; format: cell-based, mouse; conditions: TGF-β + eupatilin 50 μM, 24 hr
Method: Also in order to evaluate whether the effect of eupatilin described above is due to the influence of eupatilin on EMT, for the cells incubated for 24 hr in each test group, the extent of expression of […], for example, Col1 (type 1 Collagen), Vim (Vimentin) and Twist, was measured through real-time RT-PCR.

[2] = Observation of toxic symptoms and death after administration; format: in vivo, C57BL/6J mice; conditions: 2 to 3 days after administration, nasal, bleomycin-treated mice
Method: Eupatilin was used by being dissolved in a DPBS buffer (containing 1% DMSO), and the amount of eupatilin that was administered was 1 mL/kg, and the dose for each individual was calculated based on the recent body weight thereof 12 days after the administration of bleomycin, eupatilin was forcibly nasally administered once a day (5 times a week) for 1 week using a micropipette.

ONGHEPA1 cells = experiment: TGF-β-induced fibrosis of ONGHEPA1 cells (microscope); format: cell-based, mouse; conditions: for inhibition of the progress of fibrosis (differentiation into myofibroblasts): TGF-β 5 ng/mL plus 50 μM compound, 24 hr
Description: The liver tissue was separated from C57BL/6 mice and a single-cell suspension thereof was made, and immortalized cells were obtained through continuous culture and were confirmed to be mesenchymal stem cells (MSC) of HSC via RT-PCR (Reverse Transcription Polymerase Chain Reaction) using MC (Immunohistochemistry) and FACS (Fluorescence-Activated Cell Sorting). This cell line was called “ONGHEPA1”, and was deposited with the Korean Collection for Type Cultures (KCTC) of the Korea Research Institute of Bioscience and Biotechnology and assigned accession number KCTC13086BP.
Using such properties of HSC, the fibrotic characteristics of ONGHEPA1 were measured. To induce fibrosis, TGF-β (transforming growth factor beta) was added, and the morphologies of the cells were observed after 6 hr, 12 hr, 24 hr, and 48 hr. Consequently, fibrosis was confirmed to progress considerably after 24 hr and further progress after 48 hr (A of FIG. 6).
While ONGHEPA1 cells were incubated, they were treated with TGF-β to induce fibrosis, and 50 μM of eupatilin was added to the culture medium.
In order to more clearly evaluate the effect of eupatilin as above, changes were measured when ONGHEPA1 cells were first treated with eupatilin, washed to remove eupatilin and then treated with TGF-β to induce fibrosis. […] This means that eupatilin is directly associated with the course of fibrosis to thus inhibit the progress of fibrosis.
On the contrary, changes were measured when ONGHEPA1 cells were first treated with TGF-β to induce fibrosis, washed to remove TGF-β and then treated with eupatilin. […] Even when fibrosis was already progressed, eupatilin was able to restore the cells to their original normal condition.
In order to more clearly evaluate whether eupatilin was able to restore the cells that already undergone fibrosis to normal cells, changes were measured when ONGHEPA1 cells were treated with TGF-β for 24 hr to induce complete fibrosis and then treated with eupatilin. […] This means that fibrosis that has progressed considerably can be effectively treated using eupatilin.
The effects of various chromone derivatives other than eupatilin on fibrosis were measured in the same manner as in Example 3-3. While ONGHEPA1 cells were incubated, fibrosis was induced by TGF-β, and a chromone derivative was added at a concentration of 50 μM to the culture medium.

COc1ccc(-c2cc(=O)c3c(O)c(OC)c(O)cc3o2)cc1OC [eupatilin, 2-(3,4-dimethoxyphenyl)-5,7-dihydroxy-6-methoxy-chromone]
expression of Col1 (type 1 Collagen) [1]: inhibited | expression of Twist [1]: inhibited | expression of Vim (Vimentin) [1]: inhibited | toxic symptoms and occurrence of death [2]: no particularly abnormal symptoms were observed | inhibition of the progress of fibrosis (differentiation into myofibroblasts) (ONGHEPA1 cells): fibrosis were not observed | inhibition of the progress of fibrosis (differentiation into myofibroblasts) (ONGHEPA1 cells; listed as Chemical Formula 2): superior fibrosis-inhibiting effects | restoration of cells after TGF-β pretreatment (ONGHEPA1 cells; TGF-β 1 to 12 hr, washed, then eupatilin 50 μM 24 hr): normal cells such as a control group were maintained | restoration of completely fibrotic cells (ONGHEPA1 cells; TGF-β 24 hr, washed, then eupatilin 50 μM and TGF-β 24 hr): restore the cells in which fibrosis has been completely induced by TGF-β to their normal condition | inhibition of the progress of fibrosis after pretreatment (ONGHEPA1 cells; eupatilin 2 to 6 hr, washed, then TGF-β 24 hr): the progress of fibrosis was not inhibited | influence on normal HSC (ONGHEPA1 cells; eupatilin pretreatment, washed, then TGF-β): no influence on normal HSC
